From PMC9786103, “Potent and Selective Inhibition of CYP1A2 Enzyme by Obtusifolin and Its Chemopreventive Effects” (Pharmaceutics, 2022)

Key:
Format in all cases: biochemical
rCYP1A2 = target: T1, rCYP1A2 (Homo sapiens, UniProt P05177); assay: Ethoxyresorufin O-deethylation (EROD) in recombinant CYP1A2; settings: rCYP1A2 10 pmol/mL, 7-ethoxyresorufin 2 µM, 20 min; read-out: IC50, CYP1A2-mediated EROD
T1 construct: purchased SPMED (Busan, Republic of Korea)
T1 sequence (P05177 1-516): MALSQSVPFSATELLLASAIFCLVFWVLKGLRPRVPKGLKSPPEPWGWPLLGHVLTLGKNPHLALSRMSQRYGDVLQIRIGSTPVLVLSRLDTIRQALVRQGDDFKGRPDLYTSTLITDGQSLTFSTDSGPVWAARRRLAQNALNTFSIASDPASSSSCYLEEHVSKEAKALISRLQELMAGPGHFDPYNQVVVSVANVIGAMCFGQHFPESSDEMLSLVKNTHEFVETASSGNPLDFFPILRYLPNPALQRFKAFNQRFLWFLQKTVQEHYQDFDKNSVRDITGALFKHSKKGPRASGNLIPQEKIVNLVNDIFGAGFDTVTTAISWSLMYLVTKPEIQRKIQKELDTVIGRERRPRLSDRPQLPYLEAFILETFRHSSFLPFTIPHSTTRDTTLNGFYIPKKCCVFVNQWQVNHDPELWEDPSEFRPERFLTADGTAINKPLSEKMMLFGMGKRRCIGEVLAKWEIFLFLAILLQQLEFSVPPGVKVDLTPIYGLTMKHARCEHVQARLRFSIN
Procedure: The inhibitory effects of obtusifolin on the CYP1A-mediated ethoxyresorufin O-deethylation (EROD) activity of rCYP1A1 and rCYP1A2 enzymes (10 pmol/mL) were investigated. […] The other conditions, except for the incubation time (20 min), were similar to those used in the P450 inhibition study, as described earlier.

rCYP1A1 = target: T2, rCYP1A1 (Homo sapiens, UniProt P04798); assay: Phenacetin O-deethylation (POD) in recombinant CYP1A1
T2 construct: purchased SPMED (Busan, Republic of Korea)
T2 sequence (P04798 1-512): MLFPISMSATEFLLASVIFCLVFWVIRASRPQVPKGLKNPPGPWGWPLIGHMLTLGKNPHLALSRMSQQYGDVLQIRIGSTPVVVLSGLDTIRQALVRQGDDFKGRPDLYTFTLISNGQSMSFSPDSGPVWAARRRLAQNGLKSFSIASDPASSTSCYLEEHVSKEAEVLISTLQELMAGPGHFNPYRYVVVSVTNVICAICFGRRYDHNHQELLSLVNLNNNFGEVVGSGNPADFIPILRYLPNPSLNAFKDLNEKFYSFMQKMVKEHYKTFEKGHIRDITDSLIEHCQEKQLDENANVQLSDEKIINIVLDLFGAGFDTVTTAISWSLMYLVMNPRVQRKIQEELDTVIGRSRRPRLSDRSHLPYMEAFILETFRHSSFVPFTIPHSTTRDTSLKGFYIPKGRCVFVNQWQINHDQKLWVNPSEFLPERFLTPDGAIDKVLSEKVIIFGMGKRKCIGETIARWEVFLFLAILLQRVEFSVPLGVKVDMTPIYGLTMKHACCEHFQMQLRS

CYP2A6 = target: T3, CYP2A6 (Homo sapiens, UniProt P11509); assay: Coumarin 7-hydroxylation in human liver microsomes; settings: HLMs
T3 construct: Mixtures of pooled HLM, P450 substrates, and obtusifolin; tissue XenoTech XTreme 200; host or cells: pooled human liver microsomes
T3 sequence (P11509 1-494): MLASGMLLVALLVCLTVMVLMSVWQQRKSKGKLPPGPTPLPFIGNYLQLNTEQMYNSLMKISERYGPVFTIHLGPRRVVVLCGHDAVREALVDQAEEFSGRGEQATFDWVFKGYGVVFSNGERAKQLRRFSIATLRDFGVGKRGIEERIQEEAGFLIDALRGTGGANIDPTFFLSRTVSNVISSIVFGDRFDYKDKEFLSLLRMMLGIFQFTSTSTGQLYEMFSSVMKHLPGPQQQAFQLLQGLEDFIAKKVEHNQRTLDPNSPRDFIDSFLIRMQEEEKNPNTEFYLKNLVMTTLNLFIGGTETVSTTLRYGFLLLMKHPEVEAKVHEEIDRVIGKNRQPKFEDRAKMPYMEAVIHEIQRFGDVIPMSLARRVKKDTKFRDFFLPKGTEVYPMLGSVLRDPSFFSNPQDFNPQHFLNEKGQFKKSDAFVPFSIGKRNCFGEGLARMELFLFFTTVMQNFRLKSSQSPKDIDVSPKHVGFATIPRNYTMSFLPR
Procedure: (§1) The following P450 isoform-specific substrates were used: coumarin (CYP2A6); bupropion (CYP2B6); amodiaquine (CYP2C8); tolbutamide (CYP2C9); omeprazole (CYP2C19); dextromethorphan (CYP2D6); chlorzoxazone (CYP2E1); and midazolam (CYP3A). […] NGS was introduced to start the reaction, which was followed by an additional incubation (15 min). Following reaction termination, aliquots of the supernatants were analyzed with LC-MS/MS.
(§2) Reverse phase column (Kinetex XB-C18, 100 × 2.10 mm; Phenomenex, Torrance, CA, USA) and triple-quadrupole mass spectrometer (LCMS 8060, Shimadzu, Kyoto, Japan) with an ultra high-performance LC system (Nexera X2, Shimadzu) analyze all the metabolites. […] For each metabolite, quantitation was carried out in selected reaction monitoring (SRM) mode using the following precursor-to-product ion transition: m/z 152 > 110 for acetaminophen (CYP1A2), m/z 214 > 186 for resorufin (CYP1A1 and CYP1A2), m/z 163 > 107 for 7-hydroxycoumarin (CYP2A6), m/z 256 > 238 for 6-hydroxybupropion (CYP2B6), m/z 328 > 283 for N-desethylamodiaquine (CYP2C8), m/z 287 > 89 for 5-hydroxytolbutamide (CYP2C9), m/z 362 > 214 for 4-hydroxyomeprazole (CYP2C9), m/z 258 > 157 for dextrorphan (CYP2D6), m/z 184 > 120 for 6-hydroxychlorzoxazone (CYP2E1), m/z 342 > 203 for 1′-hydroxymidazolam (CYP3A), and m/z 295 > 100 for trimipramine (IS) [23, 24].

[1] = target: T4, recombinant CYP1A2 (rCYP1A2) (Homo sapiens, UniProt P05177); assay: Inhibition of CYP1A2-mediated POD in recombinant CYP1A2; settings: rCYP1A2 10 pmol/mL
T4 construct: purchased SPMED (Busan, Republic of Korea)
T4 sequence (P05177 1-516): T1 sequence (P05177 1-516)
Source text: The other conditions were similar to those used in the P450 inhibition study, as described earlier.
WinNonlin software (Pharsight, Mountain View, CA, USA) was used to calculate IC50 values. Based on Lineweaver–Burk double reciprocal plots, secondary plots of Lineweaver–Burk plots versus obtusifolin concentrations, and visual inspection of Dixon plots, the type of inhibition and apparent kinetic parameters for inhibitory activity (Ki) were estimated.

CYP2D6 = target: T5, CYP2D6 (Homo sapiens, UniProt P10635); assay: Dextromethorphan O-demethylation in human liver microsomes; settings: HLMs
T5 construct: Mixtures of pooled HLM, P450 substrates, and obtusifolin; tissue XenoTech XTreme 200; host or cells: pooled human liver microsomes
Procedure: as §1, §2

CYP2C8 = target: T6, CYP2C8 (Homo sapiens, UniProt P10632); assay: Amodiaquine N-deethylation in human liver microsomes; settings: HLMs
T6 construct: Mixtures of pooled HLM, P450 substrates, and obtusifolin; tissue XenoTech XTreme 200; host or cells: pooled human liver microsomes
T6 sequence (P10632 1-490): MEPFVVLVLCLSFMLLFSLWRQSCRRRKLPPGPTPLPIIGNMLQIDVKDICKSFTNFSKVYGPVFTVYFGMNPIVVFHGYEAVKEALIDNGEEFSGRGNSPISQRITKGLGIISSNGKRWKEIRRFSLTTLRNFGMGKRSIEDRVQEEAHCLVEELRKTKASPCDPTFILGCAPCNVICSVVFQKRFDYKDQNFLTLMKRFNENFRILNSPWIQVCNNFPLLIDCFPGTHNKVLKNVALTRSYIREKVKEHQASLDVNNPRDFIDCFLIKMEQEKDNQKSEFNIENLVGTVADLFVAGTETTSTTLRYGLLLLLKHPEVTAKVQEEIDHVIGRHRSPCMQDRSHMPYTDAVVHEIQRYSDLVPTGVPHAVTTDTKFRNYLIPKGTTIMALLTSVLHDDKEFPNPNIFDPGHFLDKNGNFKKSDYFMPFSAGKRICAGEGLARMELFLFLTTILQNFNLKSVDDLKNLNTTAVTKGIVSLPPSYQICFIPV
Procedure: as §1, §2

CYP1A2 = target: T7, CYP1A2 (Homo sapiens, UniProt P05177); assay: Time-dependent inhibition assay (IC50 shift) of CYP1A2-mediated POD in pHLMs; parameters: tissue XenoTech XTreme 200; host or cells: pooled human liver microsomes
T7 sequence (P05177 1-516): T1 sequence (P05177 1-516)
Procedure: The IC50 shift approach was applied to assess the time-dependent inhibition of CYP1A2 by obtusifolin [18]. For 30 min, obtusifolin was pre-incubated with pHLMs in the presence of NGS. The reaction was started with 100 µM phenacetin and then incubated for 15 min. Following reaction termination and centrifugation, aliquots of the supernatants were subjected to LC-MS/MS analysis.

T5 sequence (P10635 whole entry): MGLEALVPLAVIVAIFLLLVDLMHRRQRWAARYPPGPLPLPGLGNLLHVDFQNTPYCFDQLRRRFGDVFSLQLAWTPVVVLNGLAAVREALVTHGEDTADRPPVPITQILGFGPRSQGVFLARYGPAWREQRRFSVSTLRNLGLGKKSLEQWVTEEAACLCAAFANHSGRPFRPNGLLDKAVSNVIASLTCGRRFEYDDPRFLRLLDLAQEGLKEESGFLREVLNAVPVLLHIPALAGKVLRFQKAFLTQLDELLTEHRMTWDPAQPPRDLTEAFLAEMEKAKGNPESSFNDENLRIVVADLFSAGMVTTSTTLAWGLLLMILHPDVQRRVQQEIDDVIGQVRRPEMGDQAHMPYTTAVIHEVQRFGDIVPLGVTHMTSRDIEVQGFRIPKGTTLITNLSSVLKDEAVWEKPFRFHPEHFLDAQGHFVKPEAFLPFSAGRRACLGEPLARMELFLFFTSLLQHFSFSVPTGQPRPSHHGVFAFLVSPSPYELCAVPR

With `COc1c(O)c(C)cc2c1C(=O)c1c(O)cccc1C2=O` [Obtusifolin, obtusifolin] the IC50 (rCYP1A2) was 570 ± 110 nM, the “Selectivity for rCYP1A1 over rCYP1A2” value (rCYP1A1; CYP1A-mediated POD activity) was “over six-fold” and the IC50 (rCYP1A1; substrate phenacetin (POD)) was 60 ± 20 nM. The IC50 (CYP2A6) was > 50000 nM, the IC50 ([1]; phenacetin, read-out: IC50, CYP1A2-mediated phenacetin O-deethylation) was 370 ± 110 nM and the Ki ([1]; read-out: Ki, CYP1A2-mediated phenacetin O-deethylation) was 210 ± 53 nM. The IC50 (CYP2D6) was > 50000 nM, the IC50 (CYP2C8) was 31400 nM and the IC50 (CYP1A2; 30 min preincubation with pHLMs and NGS, phenacetin 100 µM) was 130 nM. The “Time dependence of CYP1A2 inhibition” value (CYP1A2; IC50 shift approach) was “time-independent inhibition” and the IC50 shift at 15 min (CYP1A2; human, pooled human liver microsomes, probe phenacetin (100 µM), 30 min preincubation with NGS vs without, pHLMs) was 1.46.
